According to patent US20100098788A1, “Extracts of Curcuma and Methods of Use Thereof” (priority 2008, published 2010):
Where two headings read alike, the source gives them in different places.

Legend:
Aβ1-42 aggregation = molecular target: T1, Aβ1-42 aggregation (Homo sapiens, UniProt P05067); test: Interaction matrices of Extract 1 with extracts and curcuminoids in the Aβ1-42 aggregation assay; format: biochemical
T1 construct: carried out with the synthetic Aβ1-42 peptide incubated with the extracts
T1 sequence (P05067 672-713): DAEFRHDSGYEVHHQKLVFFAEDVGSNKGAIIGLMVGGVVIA

Aβ1-42 peptide = molecular target: T2, Aβ1-42 peptide (Homo sapiens, UniProt P05067); test: Amyloid aggregation assay (thioflavin T fluorescence); format: biochemical; conditions: 0 to 30 μg mL^−1, 120 h, 37° C.
T2 construct: carried out with the synthetic Aβ1-42 peptide incubated with the extracts
T2 sequence (P05067 672-713): as above

[1] = test system: Aβ1-40, 42 peptides secreted from SweAPP N2a cells; test: Aβ secretion ELISA in conditioned media of SweAPP N2a cells; format: cell-based; conditions: 3-30 μg/ml, 12 h
[2] = test system: phosphorylated tau (Ser199/220 and AT8 antibodies) in Tg2576 mice; test: Western blot of phosphorylated tau in brain homogenates after oral treatment; format: in vivo; conditions: soluble fraction, oral 0.07% in chow, 6 months
Experimental: The Tg2576 mice, which are engineered to develop AD within ca. 6 months after birth, were purchased from Taconic (Germantown, N.Y.). For oral administration of extracts, a total of 60 (30 female/30 male) Tg2576 mice with a B6/SJL background were employed. Beginning at 8 months of age, Tg2576 treatment mice were administered optimized turmeric Extract 1 and THC in NIH31 chow (0.07% in NIH31 chow, 167 mg/kg/day) or NIH31 chow alone (Control) for 6 months [n=20 (10 female/10 male)]. All mice were sacrificed at 14 months of age for analyses of Aβ levels and Aβ load in the brain according to previously described methods (J. Tan, T. Town, F. Crawford, T. Mori, A. DelleDonne, R. Crescentini, D. Obregon, R. A. Flavell and M. J. Mullan, 2002. Role of CD40 ligand in amyloidosis in transgenic Alzheimer's mice, Nat. Neurosci. 5:1288-1293). […]
Brain homogenates were obtained as previously described above. […] Densitometric analysis was done as previously described using a FluorS Multiimager with Quantity One™ software (BioRad, Hercules, Calif.) (K. Rezai-Zadeh, D. Shytle, N. Sun, T. Mori, H. Hou, D. Jeanniton, J. Ehrhart, K. Townsend, J. Zeng, D. Morgan, J. Hardy, T. Town and J. Tan, 2005. Green tea epigallocatechin-3-gallate (EGCG) modulates amyloid precursor protein cleavage and reduces cerebral amyloidosis in Alzheimer transgenic mice, J. Neurosci. 25:8807-8814).

[3] = test system: IL-4 and IL-2 in splenocytes of Tg2576 mice; test: Cytokine ELISA of anti-CD3 stimulated primary splenocyte cultures from treated mice; format: in vivo; conditions: splenocytes stimulated 24 h with anti-CD3 antibody
Experimental: FIG. 9 depicts the IL-4 to IL-2 cytokine profile of Extract 1- and THC-treated Tg2576 mice. Following sacrifice, primary cultures of splenocytes were established from the mice and stimulated for 24 hours with anti-CD3 antibody.
The Tg2576 mice, which are engineered to develop AD within ca. 6 months after birth, were purchased from Taconic (Germantown, N.Y.). For oral administration of extracts, a total of 60 (30 female/30 male) Tg2576 mice with a B6/SJL background were employed. […]
As described in the previous studies (J. Tan, T. Town, D. Paris, T. Mori, Z. Suo, F. Crawford, M. P. Mattson, R. A. Flavell and M. Mullan, 1999. Microglial activation resulting from CD40-CD40L interaction after beta-amyloid stimulation, Science. 286:2352-2355; J. Tan, T. Town, M. Saxe, D. Paris, Y. Wu and M. Mullan, 1999. Ligation of microglial CD40 results in p44/42 mitogen-activated protein kinase-dependent TNF-alpha production that is opposed by TGF-beta 1 and IL-10, J. Immunol. 163:6614-6621) cell cultured media were collected for measurement of cytokines by commercial cytokine ELISA kits. […] Cytokines were quantified using commercially available ELISAs (BioSource International, Inc., Camarillo, Calif.) that allow for detection of IL-2 and IL-4. […]

COc1cc(/C=C/C(=O)CC(=O)/C=C/c2ccc(O)c(OC)c2)ccc1O [Curcumin, curcumin]
Effect (Aβ1-42 aggregation; interaction with Extract 1 (synergistic, antagonistic or additive)): Additive | inhibition of Aβ1-42 aggregation (Aβ1-42 peptide): effective

COc1cc(/C=C/C(O)=C/C(=O)/C=C/c2ccc(O)cc2)ccc1O [DMC, demethoxycurcumin]
inhibition of Aβ generation [1]: ca. 10% | IC50 (Aβ1-42 aggregation; extract or standard alone, Aβ1-42 aggregation, read-out: IC50 Individual (converted)): 1700 µM

COc1cc(CCC(=O)CC(=O)CCc2ccc(O)c(OC)c2)ccc1O [THC, tetrahydrocurcumin]
reduction of tau hyper-phosphorylation compared to control [2]: ca. 40% | ratio of IL-4 to IL-2 cytokine levels [3]: 0.8 | IC50 (Aβ1-42 aggregation): 95.3 µM
